Holding throughout (experiment): greenhouse post-emergence herbicidal test
The test system of assay [1] is GERDI. The assay is classed as in vivo, Geranium dissectum. Particulars: Geranium dissectum, post-emergence, 480 h, post emergence, read-out: herbicidal activity against GERDI found. As to the method: (§1) The culture containers used were plastic pots containing medium loamy sand with approximately 4.6% of humus and 69.9% sand as substrate. The seeds of the test plants were sown separately for each species.
(§2) For the post-emergence treatment, the test plants were grown to a plant height of from 1 to 15 cm, depending on the plant habit, and only then treated with the active compounds which had been suspended or emulsified in water. To this end, the test plants were either sown directly, and grown in the same containers, or they were first grown separately as seedlings and transplanted into the test containers a few days prior to treatment.
(§3) Depending on the species, the plants were kept at 10-25° C. and 20-35° C., respectively.
(§4) The test period extended over 1 to 3 weeks. During this time, the plants were tended and their response to the individual treatments was evaluated 20 days after treatment except mentioned otherwise.
(§5) Evaluation was carried out using a scale from 0 to 100. 100 means no emergence of the plants, or complete destruction of at least the above-ground parts, and 0 means no damage or normal course of growth.
(§6) The respective stated components A and B, and, if appropriate, C, were formulated as a 10% by weight strength emulsion concentrate and, with addition of the amount of solvent system, introduced into the spray liquor used for applying the active compound. In the examples, the solvent used was water.
(§7) In the examples below, using the method of S. R. Colby (1967) “Calculating synergistic and antagonistic responses of herbicide combinations”, Weeds 15, p. 22 ff., the value E, which is expected if the activity of the individual active compounds is only additive, was calculated. E=X+Y−(X·Y/100)

Assay [2] concerns MATCH. The assay is classed as in vivo, Matricaria recutita. Further details: key to herbicidal activity against MATCH found: rating on a scale from 0 to 100. Particulars: post emergence. As to the method: as §1, §2, §3, §4, §5, §6, §7
In assay [3] the test system is ABUTH. The assay is classed as in vivo, Abutilon theophrast. Further details: key to herbicidal activity against ABUTH found: rating on a scale from 0 to 100. Particulars: post emergence; for herbicidal activity against ABUTH found: B.107 (topramezone) 6 g/ha, alone or as mixture (composition 1.107). As to the method: as §1, §2, §3, §4, §5, §6, §7
Assay [4] relates to ERICA. The assay is classed as in vivo, Conyza canadensis. Further details: key to herbicidal activity against ERICA found: rating on a scale from 0 to 100. The note with it: post emergence. As to the method:
as §1, §2, §3, §4, §5, §6, §7

Assay [5] relates to POLCO. It counts as in vivo, Polygonum convolvulus. Further details: key to herbicidal activity against POLCO found: rating on a scale from 0 to 100. The note with it: post emergence. As to the method:
as §1, §2, §3, §4, §5, §6, §7

Assay [6] relates to VIOAR. It counts as in vivo, Viola arvensis. Particulars: post emergence. Further details: key to herbicidal activity against VIOAR found / herbicidal activity against VIOLA found: rating on a scale from 0 to 100. The protocol:
as §1, §2, §3, §4, §5, §6, §7

The subject of assay [7] is ALOMY. It counts as in vivo, Alopecurus myosuroides. Further details: key to herbicidal activity against ALOMY found: rating on a scale from 0 to 100. Particulars: post emergence. The protocol: as §1, §2, §3, §4, §5, §6, §7
Assay [8] deals with GALAP. The assay is classed as in vivo, Galium aparine. Further details: key to herbicidal activity against GALAP found: rating on a scale from 0 to 100. The note with it: post emergence. The protocol:
as §1, §2, §3, §4, §5, §6, §7

The mark [9] stands for this setting: g/ha a.i.: I.1 125, B.63 0.5, mixture 125+0.5.
[10] abbreviates: g/ha a.i.: I.1 125, B.63 1, mixture 125+1.
The mark [11] stands for this setting: a.i. g/ha: I.1 31.25, B.92 0.5, 20 days after treatment.
Setting [12] is: application rate a.i.: I.1 20.8 g/ha, B.107 (topramezone) 6 g/ha, alone or as mixture (composition 1.107).
The mark [13] stands for this setting: application rate a.i.: I.1 62.5 g/ha, B.107 (topramezone) 6 g/ha, alone or as mixture (composition 1.107).

With `CC(C)C1(C)N=C(c2ncccc2C(=O)O)NC1=O` (centres unmarked) [B.35, imazapyr], the pest or weed control at 10 g/ha was 95% in assay [1] (10 g/ha a.i.); 55% in assay [2] (Matricaria chamomilla, post-emergence, 480 h, 10 g/ha a.i., read-out: herbicidal activity against MATCH found); 90% in assay [3] (Abutilon theophrasti, post-emergence, 480 h, 10 g/ha a.i., read-out: herbicidal activity against ABUTH found). For the same compound, the pest or weed control at 5 g/ha in assay [4] (Erigeron canadensis, post-emergence, 480 h, 5 g/ha a.i., read-out: herbicidal activity against ERICA found) is 75%; in assay [5] (Fallopia convolvulus, post-emergence, 480 h, 5 g/ha a.i., read-out: herbicidal activity against POLCO found), 95%; in assay [6] (Viola arvensis, post-emergence, 5 g/ha a.i., read-out: herbicidal activity against VIOAR found), 55%.
For `COC(=O)c1ccc(I)cc1S(=O)(=O)[N-]C(=O)Nc1nc(C)nc(OC)n1.[Na+]` [B.44, iodosulfuron-methyl-sodium], in assay [5] (1 g/ha a.i.), the “herbicidal activity against POLCO found” value is listed as 90. In addition, the “herbicidal activity against ALOMY found” value in assay [7] (1 g/ha a.i.) was determined as 20.
On to `COC(=O)c1ccccc1S(=O)(=O)NC(=O)N(C)c1nc(C)nc(OC)n1` [B.63, tribenuron-methyl], for which, in assay [2] (setting [9]), the “herbicidal activity against MATCH found” value is reported as 30. Also, the “herbicidal activity against POLCO found” value turned out to be 30 in assay [5] (g/ha a.i.: I.1 31.25, B.63 1, mixture 31.25+1); 20 in assay [5] (setting [9]); 30 in assay [5] (setting [10]). The “herbicidal activity against VIOAR found” value in assay [6] (g/ha a.i.: I.1 62.5, B.63 0.5, mixture 62.5+0.5) worked out at 65; in assay [6] (setting [10]), 40. The “herbicidal activity against ALOMY found” value in assay [7] (setting [9]) is 0.
As for `CC(C)N(C)S(=O)(=O)NC(=O)c1cc(-n2c(=O)cc(C(F)(F)F)n(C)c2=O)c(F)cc1Cl` [B.92, saflufenacil], the “herbicidal activity against ERICA found” value in assay [4] (setting [11]) is 80%. Also, in assay [8] (setting [11]), the “herbicidal activity against GALAP found” value was found to be 80%.
With `Cc1c(C(=O)c2cnn(C)c2O)ccc(S(C)(=O)=O)c1C1=NOCC1` [B.107, topramezone], in assay [2] (setting [12]), the “herbicidal activity against MATCH found” value is 70. Also, the “herbicidal activity against ABUTH found” value in assay [3] (application rate a.i.: I.1 20.8 g/ha) and in assay [3] (application rate a.i.: I.1 62.5 g/ha) was 85 throughout. Besides, the “herbicidal activity against ERICA found” value in assay [4] (setting [12]) and in assay [4] (setting [13]) was 65 each time. Further, the “herbicidal activity against POLCO found” value in assay [5] (setting [13]) amounted to 35. In addition, the “herbicidal activity against GALAP found” value in assay [8] (setting [13]) is reported as 70.
As for `CCC(CC)Nc1c([N+](=O)[O-])cc(C)c(C)c1[N+](=O)[O-]` [B.123, pendimethalin], the pest or weed control at 1000 g/ha in assay [1] (B.123 alone 1000 g/ha a.i.) was 75%; in assay [4] (Erigeron canadensis, post-emergence, 480 h, B.123 alone 1000 g/ha a.i., read-out: herbicidal activity against ERICA found) it was 60%; in assay [5] (Fallopia convolvulus, post-emergence, 480 h, B.123 alone 1000 g/ha a.i., read-out: herbicidal activity against POLCO found) it was 65%. Further, in assay [4] (Erigeron canadensis, post-emergence, 480 h, B.123 alone 500 g/ha a.i., read-out: herbicidal activity against ERICA found), the pest or weed control at 500 g/ha was 30%.
Consider `CCCOCCN(C(=O)CCl)c1c(CC)cccc1CC` [B.135, pretilachlor], for which the pest or weed control at 100 g/ha in assay [1] (B.135 100 g/ha a.i.) was 0%; in assay [3] (Abutilon theophrasti, post-emergence, 480 h, B.135 100 g/ha a.i., read-out: herbicidal activity against ABUTH found) it was 0%; in assay [4] (Erigeron canadensis, post-emergence, 480 h, B.135 100 g/ha a.i., read-out: herbicidal activity against ERICA found), 0%. Also, the pest or weed control at 200 g/ha was 0% in assay [1] (B.135 200 g/ha a.i.); 0% in assay [2] (Matricaria chamomilla, post-emergence, 480 h, B.135 200 g/ha a.i., read-out: herbicidal activity against MATCH found); 0% in assay [3] (Abutilon theophrasti, post-emergence, 480 h, B.135 200 g/ha a.i., read-out: herbicidal activity against ABUTH found); 0% in assay [4] (Erigeron canadensis, post-emergence, 480 h, B.135 200 g/ha a.i., read-out: herbicidal activity against ERICA found); 0% in assay [5] (Fallopia convolvulus, post-emergence, 480 h, B.135 200 g/ha a.i., read-out: herbicidal activity against POLCO found); 0% in assay [8] (Galium aparine, post-emergence, 480 h, B.135 200 g/ha a.i., read-out: herbicidal activity against GALAP found). The pest or weed control at 400 g/ha in assay [1] (B.135 400 g/ha a.i.) was found to be 0%; in assay [2] (Matricaria chamomilla, post-emergence, 480 h, B.135 400 g/ha a.i., read-out: herbicidal activity against MATCH found) it was 0%; in assay [3] (Abutilon theophrasti, post-emergence, 480 h, B.135 400 g/ha a.i., read-out: herbicidal activity against ABUTH found) it was 0%; in assay [4] (Erigeron canadensis, post-emergence, 480 h, B.135 400 g/ha a.i., read-out: herbicidal activity against ERICA found) it was 20%.
With `CCCCCCCC/C=C\CCCCCCCC(=O)OC` [methyl oleate], the pest or weed control at 3 g/ha was found to be 0% in assay [1] (methyl oleate 3 g/ha a.i.); 0% in assay [2] (Matricaria chamomilla, post-emergence, 480 h, methyl oleate 3 g/ha a.i., read-out: herbicidal activity against MATCH found); 0% in assay [4] (Erigeron canadensis, post-emergence, 480 h, methyl oleate 3 g/ha a.i., read-out: herbicidal activity against ERICA found); 0% in assay [5] (Fallopia convolvulus, post-emergence, 480 h, methyl oleate 3 g/ha a.i., read-out: herbicidal activity against POLCO found). Besides, the pest or weed control at 6 g/ha in assay [1] (methyl oleate 6 g/ha a.i.) turned out to be 0%; in assay [2] (Matricaria chamomilla, post-emergence, 480 h, methyl oleate 6 g/ha a.i., read-out: herbicidal activity against MATCH found) it was 0%; in assay [3] (Abutilon theophrasti, post-emergence, 480 h, methyl oleate 6 g/ha a.i., read-out: herbicidal activity against ABUTH found) it was 0%; in assay [4] (Erigeron canadensis, post-emergence, 480 h, methyl oleate 6 g/ha a.i., read-out: herbicidal activity against ERICA found) it was 0%; in assay [5] (Fallopia convolvulus, post-emergence, 480 h, methyl oleate 6 g/ha a.i., read-out: herbicidal activity against POLCO found), 0%. Besides, the pest or weed control at 12 g/ha in assay [1] (methyl oleate 12 g/ha a.i.) stood at 0%; in assay [2] (Matricaria chamomilla, post-emergence, 480 h, methyl oleate 12 g/ha a.i., read-out: herbicidal activity against MATCH found), 0%; in assay [3] (Abutilon theophrasti, post-emergence, 480 h, methyl oleate 12 g/ha a.i., read-out: herbicidal activity against ABUTH found), 0%; in assay [4] (Erigeron canadensis, post-emergence, 480 h, methyl oleate 12 g/ha a.i., read-out: herbicidal activity against ERICA found) it was 0%; in assay [5] (Fallopia convolvulus, post-emergence, 480 h, methyl oleate 12 g/ha a.i., read-out: herbicidal activity against POLCO found) it was 0%; in assay [8] (Galium aparine, post-emergence, 480 h, methyl oleate 12 g/ha a.i., read-out: herbicidal activity against GALAP found), 0%.

Source of the values: US10881110B2, “Herbicidal compositions comprising isoxazolo[5,4-b]pyridines” (BASF SE, priority 2014, dated 2021).
